Patent US20240400584A1, “COMPOUNDS AND METHODS FOR MODULATING SPLICING” (REMIX THERAPEUTICS INC., priority 2021, published 2024)

Columns and labels:
[1] = system: Target C; assay: Gene panel canonical junction qPCR assay, Target C CJ mRNA (Table 7); type: cell-based, human; conditions: Homo sapiens, read-out: Target C CJ mRNA decrease IC50
Experimental: (§1) Compounds described herein were used to modulate RNA transcript abundance in cells. The expression of a target mRNA was measured by detecting the formation of an exon-exon junction in the canonical transcript (CJ). A compound mediated exon-inclusion event was detected by observing an increase in formation OF A new junction with an alternative exon (AJ). Real-time qPCR assays were used to detect these splicing switches and interrogate the potency of various compounds towards different target Genes. A high-throughput real time quantitative PCR (RT-qPCR) assay was developed to measure these two isoforms of the mRNA (CJ and AJ) for exemplary genes, such as HTT, SMN2, and MYB, together with a control housekeeping gene, GAPDH or GUSB or PPIA, used for normalization. Briefly, the A673 or K562 cell line was treated with various compounds described herein (e.g., compounds of Formula (i)). After treatment, the levels of the HTT, MYB, or SMN2 mRNA targets were determined from each sample of cell lysate by cDNA synthesis followed by qPCR.
(§2) The data analysis was performed by first determining the ΔCt vs the housekeeper gene. This ΔCt was then normalized against the DMSO control (ΔΔCt) and converted to RQ (relative quantification) using the 2^(−ΔΔCt) equation. The RQ were then converted to a percentage response by arbitrarily setting an assay window of 3.5 and 4.0 ΔCt for HTT-CJ and MYB-CJ respectively and an assay window of 9 and 3 ΔCt for HTT-AJ and MYB-AJ in 96 well format (50,000 K562 cells/well and 15,000 A673 cells per well) and an assay window of 3 and 4 ΔCt for HTT-CJ and MYB-CJ respectively and an assay window of 5 and 3 ΔCt for HTT-AJ and MYB-AJ respectively in 384 well format (8,000 K562 cells/well example). […] The percentage response was then fitted to the 4 parametric logistic equation to evaluate the concentration dependence of compound treatment. The increase in AJ mRNA is reported as AC50 (compound concentration having 50% response in AJ increase) while the decrease in CJ mRNA levels is reported as IC50 (compound concentration having 50% response in CJ decrease).
(§3) Additional studies were carried out for a larger panel of genes using the protocol provided above. The junction between flanking upstream and downstream exons was used to design canonical junction qPCR assays. At least one of the forward primer, reverse primer or the CY5-labeled 5′ nuclease probe (with 3′ quencher such as ZEN/Iowa Black FQ) was designed to overlap with the exon junction to capture the CJ mRNA transcript. BLAST was used to confirm the specificity of the probeset and parameters such as melting temperature, GC content, amplicon size, and primer dimer formation are considered during their design. Data for the decrease in CJ mRNA levels for four exemplary genes (HTT, SMN2, MYB, and Target C) analyzed in this panel are reported as IC50 (compound concentration having 50% response in CJ decrease).

[2] = system: HTT; assay: RT-qPCR splicing assay, HTT AJ/CJ mRNA; type: cell-based, human; conditions: Homo sapiens, 24 h, A673 or K562 cells; for IC50: decrease in canonical junction mRNA; for AC50: increase in alternative junction mRNA
Experimental: as §1
(§4) The A673 cell line was cultured in DMEM with 10% FBS. Cells were diluted with full growth media and plated in a 96-well plate (15,000 cells in 100 ul media per well). The plate was incubated at 37° C. with 5% CO2 for 24 hours to allow cells to adhere. An 11-point 3-fold serial dilution of the compounds was made in DMSO then diluted in media in an intermediate plate. Compounds were transferred from the intermediate plate to the cell plate with the top dose at a final concentration of 10 uM in the well. Final DMSO concentration was kept at or below 0.25%. The cell plate was returned to the incubator at 37° C. with 5% CO2 for an additional 24 hours.
(§5) The K562 cell line was cultured in IMDM with 10% FBS. For K562, cells were diluted with full growth media and plated in either a 96-well plate (50,000 cells in 50 uL media per well) or a 384-well plate (8,000-40,000 cells in 45 uL media per well). An 11-point 3-fold serial dilution of the compounds were made in DMSO then diluted in media in an intermediate plate. Compound was transferred from the intermediate plate to the cell plate with the top dose at a final concentration of 10 uM in the well. Final DMSO concentration was kept at or below 0.25%. Final volume was 100 uL for 96-well plate and 50 uL for 384-well plate. The cell plate was then placed in an incubator at 37° C. with 5% CO2 for 24 hours.
(§6) The cells were then gently washed with 50 uL-100 uL Cold Pbs before proceeding to addition of lysis buffer. 30 uL-50 μL of room temperature lysis buffer with DNAse I (and optionally RNAsin) was added to each well. Cells were shaken/mixed thoroughly at room temperature for 5-10 minutes for lysis to take place and then 3 uL-5 μL of room temperature stop solution was added and wells were shaken/mixed again. After 2-5 minutes, the cell lysate plate was transferred to ice for RT-qPCR reaction setup. The lysates could also be frozen at −80° C. for later use.
(§7) In some cases, a direct lysis buffer was used. an appropriate volume of 3× lysis buffer (10 mM tRis, 150 mM NaCl, 1.5%-2.5% Igepal and 0.1-1 U/uL RNAsin, pH 7.4) was directly added to either K562 or A673 cells in media and mixed by pipetting 3 times. The plates were then incubated at room temperature with shaking/rocking for 20-50 minutes to allow for lysis to take place. After this time, the cell lysate plate was transferred to ice to set up for the RT-qPCR reactions. The lysates could also be frozen at −80° C. for later use.
(§8) To set up 10 uL RT-QpcR reactions, cell lysates were transferred to 384-well qPCR plates containing the master mix according to the table below. The plates were sealed, gently vortexed, and spun down before the run. The volumes were adjusted accordingly in some instances where the reaction was carried in 20 µL. The table below summarizes the components of the RT-qPCR reactions:
(§9) The RT-qPCR reaction was performed using a QuantStudio (ThermoFisher) under the following fast cycling conditions. […]

[3] = system: HTT; assay: Gene panel canonical junction qPCR assay, HTT CJ mRNA (Table 7); type: cell-based, human; conditions: Homo sapiens, read-out: HTT CJ mRNA decrease IC50
Experimental: as §1, §2, §3

[4] = system: SMN2; assay: Gene panel canonical junction qPCR assay, SMN2 CJ mRNA (Table 7); type: cell-based; conditions: Homo sapiens, read-out: SMN2 CJ mRNA decrease IC50
Experimental: as §1, §2, §3

[5] = system: MYB; assay: RT-qPCR splicing assay, MYB AJ/CJ mRNA; type: cell-based; conditions: Homo sapiens, A673 or K562 cells, 24 hours; for IC50: decrease in canonical junction mRNA; for AC50: increase in alternative junction mRNA
Experimental: as §1, §4, §5, §6, §7, §8, §9

[6] = system: MYB; assay: Gene panel canonical junction qPCR assay, MYB CJ mRNA (Table 7); type: cell-based; conditions: Homo sapiens, read-out: MYB CJ mRNA decrease IC50
Experimental: as §1, §2, §3

Structure (SMILES) | IC50 [1] [nM] | IC50 [2] [nM] | AC50 [2] [nM] | IC50 [3] [µM] | IC50 [4] [nM] | IC50 [5] [nM] | AC50 [5] [nM] | IC50 [6] [nM]
CC1(C)CC(Nc2ccc3c(n2)CCOc2cc(-n4cccn4)ccc2-3)CC(C)(C)N1 [Compound 137] | 1000 to 10000 | 1000 to 10000 | 1000 to 10000 | > 10 | > 10000 | > 10000 | > 10000 | > 10000
c1cnn(-c2ccc3c(c2)OCCc2cc(N[C@@H]4C[C@H]5CC[C@@H](C4)N5)ccc2-3)c1 [Compound 139] | > 10000 | > 10000 | > 10000 | > 10 | > 10000 | > 10000 | > 10000 | > 10000
CN(c1ccc2c(n1)OCc1cc(-c3cnn(C)c3)ccc1-2)[C@@H]1C[C@H]2CC[C@@H](C1)N2 [Compound 150] | 100 to 1000 | < 100 | < 100 | < 0.1 | > 10000 | 100 to 1000 | 100 to 1000 | 100 to 1000
c1cnn(-c2ccc3c(c2)COc2nc(N4CC5(CCNCC5)C4)ccc2-3)c1 [Compound 167] | > 10000 | > 10000 | > 10000 | > 10 | > 10000 | > 10000 | > 10000 | > 10000
c1cnn(-c2ccc3c(c2)COc2nc(N4CC5(CCCNC5)C4)ccc2-3)c1 [Compound 168] | > 10000 | > 10000 | > 10000 | > 10 | > 10000 | > 10000 | > 10000 | > 10000
c1cnn(-c2ccc3c(c2)COc2nc(N4CCC5(CC4)CNC5)ccc2-3)c1 [Compound 169] | 100 to 1000 | 100 to 1000 | 100 to 1000 | 0.1 to 1 | 100 to 1000 | 100 to 1000 | 100 to 1000 | 100 to 1000
CN1C[C@@H]2CN(c3ccc4c(n3)OCc3cc(-n5cccn5)ccc3-4)C[C@@H]2C1 [Compound 170] | > 10000 | 1000 to 10000 | 1000 to 10000 | 1 to 10 | 1000 to 10000 | > 10000 | 1000 to 10000 | > 10000
CC1(C)CC(Oc2ccc3c(n2)OCc2cc(-n4cccn4)ccc2-3)CC(C)(C)N1 [Compound 171] | 1000 to 10000 | 1000 to 10000 | 1000 to 10000 | 1 to 10 | 100 to 1000 | 1000 to 10000 | 1000 to 10000 | 1000 to 10000
CN(c1ccc2c(n1)OCc1cc(-n3cc(N)cn3)ccc1-2)[C@@H]1C[C@H]2CC[C@@H](C1)N2 [Compound 172] | 100 to 1000 | 100 to 1000 | 100 to 1000 | 0.1 to 1 | < 100 | 100 to 1000 | 100 to 1000 | 100 to 1000
c1cnn(-c2ccc3c(c2)COc2nc(N4CCNCC4)ccc2-3)c1 [Compound 173] | > 10000 | > 10000 | > 10000 | > 10 | 1000 to 10000 | > 10000 | > 10000 | > 10000
c1cnn(-c2ccc3c(c2)COc2nc(NC4CCNCC4)ccc2-3)c1 [Compound 174] | > 10000 | > 10000 | > 10000 | > 10 | 1000 to 10000 | > 10000 | > 10000 | > 10000
CN(c1ccc2c(n1)OCc1cc(-n3cccn3)ccc1-2)C1CCNCC1 [Compound 175] | > 10000 | > 10000 | 1000 to 10000 | > 10 | 1000 to 10000 | > 10000 | > 10000 | > 10000
[2H]C([2H])([2H])N(c1ccc2c(n1)OCc1cc(-n3cccn3)ccc1-2)C1CCNCC1 [Compound 176] | > 10000 | 1000 to 10000 | 1000 to 10000 | 1 to 10 | 1000 to 10000 | > 10000 | > 10000 | > 10000
CCN(c1ccc2c(n1)OCc1cc(-n3cccn3)ccc1-2)C1CCNCC1 [Compound 177] | > 10000 | > 10000 | > 10000 | > 10 | > 10000 | > 10000 | > 10000 | > 10000
CN(c1ccc2c(n1)OCc1cc(-n3cccn3)ccc1-2)[C@@H]1C[C@H]2CCC[C@@H](C1)N2 [Compound 178] | 100 to 1000 | < 100 | < 100 | < 0.1 | < 100 | 100 to 1000 | < 100 | 100 to 1000
c1cnn(-c2ccc3c(c2)COc2nc(N[C@@H]4C[C@H]5CC[C@@H](C4)N5)ccc2-3)c1 [Compound 179] | 100 to 1000 | 100 to 1000 | 100 to 1000 | 0.1 to 1 | 100 to 1000 | 100 to 1000 | 100 to 1000 | 100 to 1000
CN(c1ccc2c(n1)OCc1cc(-n3cccn3)ccc1-2)[C@H]1C[C@]2(C)CC[C@](C)(C1)N2 [Compound 180] | 100 to 1000 | < 100 | < 100 | < 0.1 | < 100 | 100 to 1000 | 100 to 1000 | 100 to 1000
c1cnn(-c2ccc3c(c2)COc2nc(N4CCCC5(CNC5)C4)ccc2-3)c1 [Compound 181] | > 10000 | > 10000 | > 10000 | > 10 | > 10000 | > 10000 | > 10000 | > 10000
